Values quoted from earlier work in patent publication US20040132806A1, “Pravastatin pharmaceutical formulations and methods of their use” (priority 2002, published 2004).
Like-named read-outs stand apart in the source and are kept apart here.

Experiments:
[1] = intravenous, radiolabeled
[2] = such as the stomach
[3] = patients treated with pravastatin (Schatke et al, 1992)
[4] = not given; remark: listed apart in the source

CC[C@H](C)C(=O)O[C@H]1C[C@H](O)C=C2C=C[C@H](C)[C@H](CC[C@@H](O)C[C@@H](O)CC(=O)O)[C@H]21 [pravastatin, Pravastatin]
share of total body clearance by non-renal routes (biliary excretion and biotransformation) [1]: ~53%
share of total body clearance via renal excretion [1]: approximately 47%
stability in acidic conditions [2]: poor stability
decrease of systemic bioavailability following a bedtime dose (PM) compared to morning (AM) dose (PM vs AM dose): 60%
average oral absorption (based on urinary recovery of radiolabeled drug): 34%
radiolabeled oral dose excreted in the feces (oral radiolabeled dose): ~70%
radiolabeled oral dose excreted in urine (oral radiolabeled dose): Approximately 20%
myopathy [3]: Severe myopathy has been observed
hepatic extraction ratio ([4]; Lennernas & Fager, 1997): 0.45
hepatic extraction ratio ([4]; Quion & Jones, 1994): 0.66
first-pass extraction in the liver (extraction ratio) ([4]; in vivo): 0.66
